Experimental data reported in patent publication US8030300B2, “Ligands for nicotinic acetylcholine receptors, and methods of making and using them” (priority 2003, dated 2011).
Where two headings read alike, the source gives them in different places.

What was measured:
Test in all cases: biochemical
Format in all cases: binding
α2β2 nAChR subtype = target: T1, α2β2 nAChR subtype (Rattus norvegicus, UniProt P12389+P12390)
T1 construct: expressed in transfected cells
Description: (§1) In order to assess the steric and hydropathic effects of the C-5 substituents of the pyridine on the binding affinity and subtype-selectivity at neuronal nicotinic acetylcholine receptors. […] The binding affinity ratios for a ligand, calculated from its affinities at an α subunit paired with either the β2 osubunit or the β4 subunit, represents a measure of the selectivity of that ligand with regard to the β subunits.

α2β4 nAChR subtype = target: T2, α2β4 nAChR subtype (Rattus norvegicus, UniProt P12389+P12392)
T2 construct: expressed in transfected cells
T2 sequence (P12389 28-511): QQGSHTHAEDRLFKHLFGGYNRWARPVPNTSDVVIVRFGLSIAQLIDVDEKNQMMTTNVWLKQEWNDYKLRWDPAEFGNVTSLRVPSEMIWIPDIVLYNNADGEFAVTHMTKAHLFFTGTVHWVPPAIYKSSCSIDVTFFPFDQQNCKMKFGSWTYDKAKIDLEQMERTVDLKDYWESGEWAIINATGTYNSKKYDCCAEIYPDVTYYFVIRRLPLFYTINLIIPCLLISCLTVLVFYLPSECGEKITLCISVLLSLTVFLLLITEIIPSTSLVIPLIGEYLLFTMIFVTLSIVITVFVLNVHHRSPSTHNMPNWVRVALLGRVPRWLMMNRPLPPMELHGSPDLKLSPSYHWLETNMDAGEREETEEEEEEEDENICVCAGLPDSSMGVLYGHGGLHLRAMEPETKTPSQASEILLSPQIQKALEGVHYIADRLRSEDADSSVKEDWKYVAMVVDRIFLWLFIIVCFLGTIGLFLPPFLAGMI
T2 sequence (P12392 21-495): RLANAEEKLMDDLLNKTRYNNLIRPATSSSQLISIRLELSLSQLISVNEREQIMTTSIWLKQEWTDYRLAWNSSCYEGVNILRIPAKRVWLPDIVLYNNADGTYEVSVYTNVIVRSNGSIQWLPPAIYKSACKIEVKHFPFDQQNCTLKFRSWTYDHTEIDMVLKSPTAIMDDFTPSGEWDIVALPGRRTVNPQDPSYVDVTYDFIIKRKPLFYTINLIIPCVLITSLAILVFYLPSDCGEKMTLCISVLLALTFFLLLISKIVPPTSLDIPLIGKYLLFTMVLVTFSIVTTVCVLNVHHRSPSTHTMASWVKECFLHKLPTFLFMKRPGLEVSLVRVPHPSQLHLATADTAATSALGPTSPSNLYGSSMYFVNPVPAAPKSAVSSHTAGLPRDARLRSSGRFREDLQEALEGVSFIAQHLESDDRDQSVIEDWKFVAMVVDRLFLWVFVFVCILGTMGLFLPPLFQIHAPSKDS
Description: as §1

α4β4 nAChR subtype = target: T3, α4β4 nAChR subtype (Rattus norvegicus, UniProt P09483+P12392)
T3 construct: expressed in transfected cells
T3 sequence (P12392 21-495): as above
T3 sequence (P09483 31-630): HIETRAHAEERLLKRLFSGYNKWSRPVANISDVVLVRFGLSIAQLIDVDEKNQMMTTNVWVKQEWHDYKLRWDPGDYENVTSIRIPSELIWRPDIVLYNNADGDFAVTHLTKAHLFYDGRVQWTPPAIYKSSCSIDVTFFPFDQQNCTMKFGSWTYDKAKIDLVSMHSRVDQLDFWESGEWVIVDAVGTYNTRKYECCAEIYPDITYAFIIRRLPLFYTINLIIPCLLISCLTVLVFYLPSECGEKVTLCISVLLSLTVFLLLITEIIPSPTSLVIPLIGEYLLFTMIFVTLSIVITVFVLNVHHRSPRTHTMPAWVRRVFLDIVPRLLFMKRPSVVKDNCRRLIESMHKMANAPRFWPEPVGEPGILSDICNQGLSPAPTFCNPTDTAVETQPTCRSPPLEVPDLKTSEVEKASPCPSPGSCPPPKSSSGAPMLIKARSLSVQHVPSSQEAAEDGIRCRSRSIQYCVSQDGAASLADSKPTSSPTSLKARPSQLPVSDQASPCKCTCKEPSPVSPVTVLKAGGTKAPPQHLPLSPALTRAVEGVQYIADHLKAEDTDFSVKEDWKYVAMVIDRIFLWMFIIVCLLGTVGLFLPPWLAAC
Description: as §1

α3β2 nAChR subtype = target: T4, α3β2 nAChR subtype (Rattus norvegicus, UniProt P04757+P12390)
T4 construct: expressed in transfected cells
T4 sequence (P12390 25-500): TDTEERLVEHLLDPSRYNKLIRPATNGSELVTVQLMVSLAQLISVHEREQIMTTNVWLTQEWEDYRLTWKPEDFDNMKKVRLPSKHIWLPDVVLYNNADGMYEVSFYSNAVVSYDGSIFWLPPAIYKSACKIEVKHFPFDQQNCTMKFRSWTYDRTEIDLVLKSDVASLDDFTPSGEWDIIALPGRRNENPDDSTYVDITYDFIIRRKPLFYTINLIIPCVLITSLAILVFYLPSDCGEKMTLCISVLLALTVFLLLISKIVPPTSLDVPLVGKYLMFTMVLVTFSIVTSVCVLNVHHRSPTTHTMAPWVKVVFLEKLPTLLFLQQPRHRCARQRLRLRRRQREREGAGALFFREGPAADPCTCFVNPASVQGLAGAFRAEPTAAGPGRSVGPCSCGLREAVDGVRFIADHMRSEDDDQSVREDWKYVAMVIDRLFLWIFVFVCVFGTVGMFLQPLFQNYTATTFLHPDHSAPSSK
T4 sequence (P04757 26-499): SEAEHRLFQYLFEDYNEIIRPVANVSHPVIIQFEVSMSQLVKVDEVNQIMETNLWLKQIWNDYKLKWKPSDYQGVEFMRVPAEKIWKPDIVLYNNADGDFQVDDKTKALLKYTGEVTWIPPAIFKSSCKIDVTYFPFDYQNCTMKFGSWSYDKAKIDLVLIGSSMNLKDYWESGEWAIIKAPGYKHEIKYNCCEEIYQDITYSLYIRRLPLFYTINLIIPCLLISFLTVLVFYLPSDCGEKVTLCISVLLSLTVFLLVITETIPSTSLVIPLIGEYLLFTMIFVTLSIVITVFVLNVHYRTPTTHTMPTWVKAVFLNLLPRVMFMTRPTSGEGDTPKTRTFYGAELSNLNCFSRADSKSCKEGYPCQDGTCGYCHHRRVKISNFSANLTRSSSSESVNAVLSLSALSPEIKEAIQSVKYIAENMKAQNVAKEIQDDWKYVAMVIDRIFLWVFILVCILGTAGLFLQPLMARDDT
Description: as §1

α3β4 nAChR subtype = target: T5, α3β4 nAChR subtype (Rattus norvegicus, UniProt P04757+P12392)
T5 construct: expressed in transfected cells
T5 sequence (P04757 26-499): as above
T5 sequence (P12392 21-495): as the sequence (P12392 21-495) above
Description: as §1

α4β2 nAChR subtype = target: T6, α4β2 nAChR subtype (Rattus norvegicus, UniProt P09483+P12390)
T6 construct: expressed in transfected cells
T6 sequence (P12390 25-500): as the sequence (P12390 25-500) above
T6 sequence (P09483 31-630): as the sequence (P09483 31-630) above
Description: as §1

[1] = target: T7, receptors in rat forebrain (mainly α4β2) (Rattus norvegicus, UniProt P09483+P12390)
T7 construct: from tissue; host or cells: rat forebrain homogenate
T7 sequence (P09483 31-630): as above
T7 sequence (P12390 25-500): as the sequence (P12390 25-500) above
Description: as §1
In Vitro Inhibition of ^3H-Epibatidin Binding
The high affinity binding site for ^3H-epibatidin is most certainly binding to the α4β2 subtype of nicotinic receptors. The identity of the low affinity site is still believed to be unknown.
Tissue preparation: Preparations may be performed at 0-4° C. unless otherwise indicated. […] The tissue suspension may then be centrifuged at 27,000×g for 10 min. The supernatant is then discarded and the pellet may then be washed three times by centrifugation at 27,000×g for 10 min in 20 mL fresh buffer, and the final pellet may be resuspended in fresh buffer (400 mL per g of original tissue) and used for binding assays.
Assay: Aliquots of 2.0 mL homogenate may be added to 0.100 mL of test solution and 0.100 mL of ^3H-epibatidin (0.3 nM, final concentration), mixed and incubated for 60 min at room temperature. […] The amount of radioactivity on the filters may be determined by conventional liquid scintillation counting. Specific binding is total binding minus non-specific binding.

[2] = Ki α2β2, Table 5, rat nAChR subtypes
[3] = Ki α2β4, Table 5, rat nAChR subtypes
[4] = Ki α4β4, Table 5, rat nAChR subtypes
[5] = Ki α3β2, Table 5, rat nAChR subtypes
[6] = Ki α3β4, Table 5, rat nAChR subtypes
[7] = Ki α4β2, Table 5, rat nAChR subtypes
[8] = Ki α4β2*, Table 5, *Rat forebrain, mainly α4β2
[9] = Table 5, rat nAChR subtypes, read-out: Ki α2β2
[10] = Table 5, rat nAChR subtypes, read-out: Ki α2β4
[11] = Table 5, rat nAChR subtypes, read-out: Ki α4β4
[12] = Table 5, rat nAChR subtypes, read-out: Ki α3β2
[13] = Table 5, rat nAChR subtypes, read-out: Ki α3β4
[14] = Table 5, rat nAChR subtypes, read-out: Ki α4β2
[15] = Table 5, *Rat forebrain, mainly α4β2, read-out: Ki α4β2*
[16] = Table 3, mean ± SEM of 3 (nicotine, 1: 3 to 6) independent measurements, read-out: Ki α2β2
[17] = Table 3, mean ± SEM of 3 (nicotine, 1: 3 to 6) independent measurements, read-out: Ki α2β4
[18] = Table 3, mean ± SEM of 3 (nicotine, 1: 3 to 6) independent measurements, read-out: Ki α4β4
[19] = Table 3, mean ± SEM of 3 (nicotine, 1: 3 to 6) independent measurements, read-out: Ki α3β2
[20] = Table 3, mean ± SEM of 3 (nicotine, 1: 3 to 6) independent measurements, read-out: Ki α3β4
[21] = Table 3, mean ± SEM of 3 (nicotine, 1: 3 to 6) independent measurements, read-out: Ki α4β2

T1 sequence (P12390 25-500): as above
T1 sequence (P12389 28-511): as the sequence (P12389 28-511) above

Row | Structure (SMILES) | Ki (α2β2 nAChR subtype; [2]) | Ki (α2β4 nAChR subtype; [3]) | Ki (α4β4 nAChR subtype; [4]) | Ki (α3β2 nAChR subtype; [5]) | Ki (α3β4 nAChR subtype; [6]) | Ki (α4β2 nAChR subtype; [7]) | Ki [1, 8] | Ki (α2β2 nAChR subtype) | Ki (α2β4 nAChR subtype) | Ki (α4β4 nAChR subtype) | Ki (α3β2 nAChR subtype) | Ki (α3β4 nAChR subtype) | Ki (α4β2 nAChR subtype) | Ki [1] | also measured
1 | OCCCCC#Cc1cncc(C2CC3CCC2N3)c1 (stereo not drawn) [Ligand 31, 2-exo-(5-(6-Hydroxy-1-hexynyl)-3-pyridyl)-7-azabicyclo[2.2.1]heptane] | 0.352 nM | 45.1 nM | 15.4 nM | 0.146 nM | 266 nM | 0.166 nM | 0.215 nM |  |  |  |  |  |  |  | 
2 | Clc1ccc(C2CC3CCC2N3CCCN2C3CCC2C(c2ccc(Cl)nc2)C3)cn1 (stereo not shown) [Ligand 59b, Propane-1,3-N,N′-bisepibatidine] |  |  |  |  |  |  |  |  |  |  |  |  |  |  | Ki (α2β2 nAChR subtype; [9]): 6.08 nM; Ki (α2β4 nAChR subtype; [10]): 15.7 nM; Ki (α4β4 nAChR subtype; [11]): 23.3 nM; Ki (α3β2 nAChR subtype; [12]): 5.17 nM; Ki (α3β4 nAChR subtype; [13]): 62.9 nM; Ki (α4β2 nAChR subtype; [14]): 8.66 nM; Ki [1, 15]: 10.1 nM
3 | CN1CCC[C@H]1COc1cncc(C#CCNC(=O)OC(C)(C)C)c1 [Ligand 13] |  |  |  |  |  |  |  | 1.19 nM | 8240 nM | 8280 nM | 7.27 nM | 59900 nM | 2.07 nM | 3.71 nM | 
4 | c1cncc(OC[C@@H]2CCN2)c1 [Ligand A-85380, reference compound] | 0.073 nM | 18.4 nM | 8.04 nM | 0.208 nM | 77.7 nM | 0.142 nM | 0.248 nM |  |  |  |  |  |  |  | Ki (α2β4 nAChR subtype; Ki α2β4, Table 6, [3H]-EB 0.099 nM, 0.091 nM, ligand 0.00197-100 μM, n = 1): 18.4 nM; Ki (α4β4 nAChR subtype; Ki α4β4, Table 6, [3H]-EB 0.099 nM, 0.091 nM, ligand 0.00197-100 μM, n = 1): 8.04 nM; Ki (α3β2 nAChR subtype; Ki α3β2, Table 6, [3H]-EB 0.099 nM, 0.091 nM, ligand 0.00197-100 μM, n = 1): 0.208 nM; Ki (α3β4 nAChR subtype; Ki α3β4, Table 6, [3H]-EB 0.099 nM, 0.091 nM, ligand 0.00197-100 μM, n = 1): 77.7 nM; Ki (α4β2 nAChR subtype; Ki α4β2, Table 6, [3H]-EB 0.099 nM, 0.091 nM, ligand 0.00197-100 μM, n = 1): 0.142 nM; Ki ([1]; Ki α4β2**, Table 6, **Forebrain mainly α4β2, [3H]-EB 0.099 nM, 0.091 nM, n = 1): 0.248 nM
5 | Clc1ccc2c(n1)CCC1C3CCC(N3)C21 (stereo not shown) [Ligand 37b] |  |  | 39.8 nM | 541 nM |  | 210 nM | 576 nM |  |  |  |  |  |  |  | Ki (α2β2 nAChR subtype; [16]): 59 nM; Ki (α2β2 nAChR subtype; [9]): 59.4 nM; Ki (α2β4 nAChR subtype; [17]): 32 nM; Ki (α2β4 nAChR subtype; [10]): 32.2 nM; Ki (α4β4 nAChR subtype; [18]): 41 nM; Ki (α3β2 nAChR subtype; [19]): 530 nM; Ki (α3β4 nAChR subtype; [20]): 201 nM; Ki (α3β4 nAChR subtype; [13]): 201 nM; Ki (α4β2 nAChR subtype; [21]): 295 nM
6 | CCCCC#Cc1cncc(OC[C@@H]2CCCN2C)c1 [Ligand 12, 5-(1-Hexynyl)-3-(1-methyl-2(S)-pyrrolidinylmethoxy)pyridine] |  |  |  |  |  |  |  |  |  |  |  |  |  |  | Ki (α2β2 nAChR subtype; [9]): 13.4 nM; Ki (α2β4 nAChR subtype; [10]): 1720 nM; Ki (α4β4 nAChR subtype; [11]): 1410 nM; Ki (α3β2 nAChR subtype; [12]): 20.3 nM; Ki (α3β4 nAChR subtype; [13]): 9560 nM; Ki (α4β2 nAChR subtype; [14]): 2.61 nM; Ki [1, 15]: 6.81 nM
7 | FCCCCC#Cc1cncc(OC[C@@H]2CCN2)c1 [Ligand 41, 5-(6-Fluoro-1-hexynyl)-3-(2(S)-azetidinylmethoxy)pyridine] | 0.796 nM | 197 nM | 118 nM | 0.635 nM | 5490 nM | 0.201 nM | 0.362 nM |  |  |  |  |  |  |  | 
8 | FC1CC2NC1CC2c1ccc(Cl)nc1 (stereo not drawn) [Ligand 10, 2-exo-(2-Chloro-5-pyridyl)-5-exo-fluoro-7-azabicyclo[2.2.1]heptane] | 0.864 nM | 5.59 nM | 1.23 nM | 0.646 nM | 10.4 nM | 1.73 nM | 2.11 nM |  |  |  |  |  |  |  | 
9 | OC1CC2NC1CC2c1ccc(Cl)nc1 (stereo not drawn) [Ligand 7, 2-exo-(2-Chloro-5-pyridyl)-5-endo-hydroxyl-7-azabicyclo[2.2.1]heptane] | 93.7 nM | 238 nM | 247 nM | 285 nM | 916 nM | 70.9 nM | 134 nM |  |  |  |  |  |  |  | 
10 | CN1CCC[C@H]1COc1cncc(C#CC(C)(C)O)c1 [Ligand 15] |  |  |  |  |  |  |  | 1.93 nM | 5890 nM | 5060 nM | 19.7 nM | 32600 nM | 1.34 nM | 8.39 nM | 
11 | CC(N)C#Cc1cncc(OC[C@@H]2CCCN2C)c1 (stereo partly shown) [ZW-99] |  |  |  |  |  |  |  | 7.52 nM | 7400 nM | 6130 nM | 47.4 nM | 127000 nM | 7.18 nM | 41.4 nM | 
12 | CN1CCC[C@H]1COc1cncc(C#CCNC(=O)OC(C)(C)C)c1 [Ligand 13, 5-(3-tert-Butoxycarbonylamino-1-propynyl)-3-(1-methyl-2(S)-pyrrolidinylmethoxy)pyridine] |  |  |  |  |  |  |  |  |  |  |  |  |  |  | Ki (α2β2 nAChR subtype; read-out: Ki α2β2, Table 5, rat nAChR subtypes): 1.19 nM; Ki (α2β4 nAChR subtype; read-out: Ki α2β4, Table 5, rat nAChR subtypes): 8240 nM; Ki (α4β4 nAChR subtype; read-out: Ki α4β4, Table 5, rat nAChR subtypes): 8280 nM; Ki (α3β2 nAChR subtype; read-out: Ki α3β2, Table 5, rat nAChR subtypes): 7.27 nM; Ki (α3β4 nAChR subtype; read-out: Ki α3β4, Table 5, rat nAChR subtypes): 59900 nM; Ki (α4β2 nAChR subtype; read-out: Ki α4β2, Table 5, rat nAChR subtypes): 2.07 nM; Ki ([1]; read-out: Ki α4β2*, Table 5, *Rat forebrain, mainly α4β2): 3.71 nM
13 | O=c1cccc2n1C[C@H]1C[C@@H]2CN(CCCOc2cccnc2)C1 [ZW-17] |  |  |  |  |  |  |  | 2980 nM | 14000 nM | 3230 nM | > 1000 nM | > 10000 nM | 3110 nM | 4550 nM | 
14 | COC(=O)c1nc(Cl)ccc1C1CC2CCC1N2 (stereo not shown) [ZW-96] | 5410 nM | 28100 nM | 46500 nM | 5510 nM | 10700 nM | 7870 nM | 18400 nM |  |  |  |  |  |  |  | 
15 | Clc1cc2c(cn1)C1(CC2)CC2CCC1N2 (stereo not shown) [Ligand 58a] | 12800 nM | 11600 nM | 10200 nM | 16000 nM | 36700 nM | 28000 nM | 54400 nM |  |  |  |  |  |  |  | Ki (α2β2 nAChR subtype; [16]): 12600 nM; Ki (α2β4 nAChR subtype; [17]): 10700 nM; Ki (α4β4 nAChR subtype; [18]): 10500 nM; Ki (α3β2 nAChR subtype; [19]): 19700 nM; Ki (α3β4 nAChR subtype; [20]): 14900 nM; Ki (α4β2 nAChR subtype; [21]): 29200 nM
16 | O=c1cccc2n1C[C@H]1C[C@@H]2CN(CCCCl)C1 [ZW-16] |  |  |  |  |  |  |  | 1340 nM | 2630 nM | 732 nM | > 1000 nM | > 10000 nM | 571 nM | 1500 nM | 
